Assay results published in patent US20130072430A1, “METHODS FOR TREATMENT OR PROPHYLAXIS OF KIDNEY OR LIVER DYSFUNCTION” (NPS PHARMACEUTICALS, INC., priority 2010, published 2013).

System: Human patients with short bowel syndrome
Assay: Example 2: liver biomarkers (albumin, gamma glutamyl transferase, total bilirubin, ALT, AST, ALP) in short bowel syndrome patients, every four weeks for 24 weeks
Type: in vivo
Conditions: 0.05 mg/kg/d
Experimental: To further confirm the results of Example 1, a further study was conducted involving more individuals and additional diagnostic biomarkers. Human patients with short bowel syndrome were divided into two groups: a control group (43 total individuals) to receive placebo, and an experimental group (42 total individuals) to receive teduglutide at 0.05 mg/kg/day throughout the study. Patients were treated by subcutaneous injection of placebo or the appropriate dose of teduglutide. Known biomarkers of liver function were monitored every four weeks, for 24 weeks. The liver biomarkers tested included albumin, gamma glutamyl transferase, total bilirubin, ALT and AST and ALP. Before administration of placebo or teduglutide, diagnostic biomarker levels were tested to establish a baseline for each individual.
To determine the effect of GLP-2 on the levels of the diagnostic biomarkers, the average level of each biomarker was measured for the placebo and teduglutide treated groups for each visit. Furthermore, the average change from baseline was calculated using the established baseline values. For FIGS. 17-28, p-values were calculated using the t-test.
P values are provided, which were calculated for each distribution of biomarker changes for each week using the chi-squared test.

CC[C@H](C)[C@H](NC(=O)[C@H](Cc1ccccc1)NC(=O)[C@H](CC(=O)O)NC(=O)[C@H](CCCNC(=N)N)NC(=O)[C@H](C)NC(=O)[C@H](C)NC(=O)[C@H](CC(C)C)NC(=O)[C@H](CC(N)=O)NC(=O)[C@H](CC(=O)O)NC(=O)[C@H](CC(C)C)NC(=O)[C@@H](NC(=O)[C@@H](NC(=O)[C@H](CC(N)=O)NC(=O)[C@H](CCSC)NC(=O)[C@H](CCC(=O)O)NC(=O)[C@H](CC(=O)O)NC(=O)[C@H](CO)NC(=O)[C@H](Cc1ccccc1)NC(=O)[C@H](CO)NC(=O)CNC(=O)[C@H](CC(=O)O)NC(=O)CNC(=O)[C@@H](N)Cc1c[nH]cn1)[C@@H](C)O)[C@@H](C)CC)C(=O)N[C@@H](CC(N)=O)C(=O)N[C@@H](Cc1c[nH]c2ccccc12)C(=O)N[C@@H](CC(C)C)C(=O)N[C@H](C(=O)N[C@@H](CCC(N)=O)C(=O)N[C@H](C(=O)N[C@@H](CCCCN)C(=O)N[C@H](C(=O)N[C@H](C(=O)N[C@@H](CC(=O)O)C(=O)O)[C@@H](C)O)[C@@H](C)CC)[C@@H](C)O)[C@@H](C)CC [teduglutide]
Gamma Glutamyl Transferase Change from Baseline, Median (Week 8, n=40): −5.5 U/L
Gamma Glutamyl Transferase Observed Value, Mean (Week 8, n=40): 71.5 U/L
Gamma Glutamyl Transferase Observed Value, Median (Week 8, n=40): 46 U/L
ALT >10% decrease from Baseline, % of subjects (Week 12, m=34): (50.0%)
ALT >10% decrease from Baseline, n subjects (Week 12, m=34): 17
ALT >10% increase from Baseline, % of subjects (Week 12, m=34): (20.6%)
ALT >10% increase from Baseline, n subjects (Week 12, m=34): 7
ALT Within 10% of Baseline, % of subjects (Week 12, m=34): (29.4%)
ALT Within 10% of Baseline, n subjects (Week 12, m=34): 10
AST >10% decrease from Baseline, % of subjects (Week 12, m=34): (61.8%)
AST >10% decrease from Baseline, n subjects (Week 12, m=34): 21
AST >10% increase from Baseline, % of subjects (Week 12, m=34): (20.6%)
AST >10% increase from Baseline, n subjects (Week 12, m=34): 7
AST Within 10% of Baseline, % of subjects (Week 12, m=34): (17.6%)
AST Within 10% of Baseline, n subjects (Week 12, m=34): 6
Albumin >10% decrease from Baseline, % of subjects (Week 12, m=34): (5.9%)
Albumin >10% decrease from Baseline, n subjects (Week 12, m=34): 2
Albumin >10% increase from Baseline, % of subjects (Week 12, m=34): (2.9%)
Albumin >10% increase from Baseline, n subjects (Week 12, m=34): 1
Albumin Within 10% of Baseline, % of subjects (Week 12, m=34): (91.2%)
Albumin Within 10% of Baseline, n subjects (Week 12, m=34): 31
Alkaline Phosphatase >10% decrease from Baseline, % of subjects (Week 12, m=34): (67.6%)
Alkaline Phosphatase >10% decrease from Baseline, n subjects (Week 12, m=34): 23
Alkaline Phosphatase >10% increase from Baseline, % of subjects (Week 12, m=34): (14.7%)
Alkaline Phosphatase >10% increase from Baseline, n subjects (Week 12, m=34): 5
Alkaline Phosphatase Within 10% of Baseline, % of subjects (Week 12, m=34): (17.6%)
Alkaline Phosphatase Within 10% of Baseline, n subjects (Week 12, m=34): 6
Bilirubin >10% decrease from Baseline, % of subjects (Week 12, m=34): (44.1%)
Bilirubin >10% decrease from Baseline, n subjects (Week 12, m=34): 15
Bilirubin >10% increase from Baseline, % of subjects (Week 12, m=34): (26.5%)
Bilirubin >10% increase from Baseline, n subjects (Week 12, m=34): 9
Bilirubin Within 10% of Baseline, % of subjects (Week 12, m=34): (29.4%)
Bilirubin Within 10% of Baseline, n subjects (Week 12, m=34): 10
ALKALINE PHOSPHATASE Change from Baseline, Median (Week 12, n=34): −23 U/L
ALT Change from Baseline, Mean (Week 12, n=34): −9.8 U/L
ALT Change from Baseline, Median (Week 12, n=34): −4 U/L
ALT Observed Value, Mean (Week 12, n=34): 33.6 U/L
ALT Observed Value, Median (Week 12, n=34): 27.5 U/L
AST Change from Baseline, Mean (Week 12, n=34): −4.2 U/L
AST Change from Baseline, Median (Week 12, n=34): −5 U/L
AST Observed Value, Mean (Week 12, n=34): 28.4 U/L
AST Observed Value, Median (Week 12, n=34): 25 U/L
Albumin Change from Baseline, Mean (Week 12, n=34): -0.9 g/L
Albumin Change from Baseline, Median (Week 12, n=34): -1 g/L
Albumin Observed Value, Mean (Week 12, n=34): 41.2 g/L
Albumin Observed Value, Median (Week 12, n=34): 41 g/L
Alkaline Phosphatase Change from Baseline, Mean (Week 12, n=34): −27.2 U/L
Alkaline Phosphatase Observed Value, Mean (Week 12, n=34): 108.6 U/L
Alkaline Phosphatase Observed Value, Median (Week 12, n=34): 98 U/L
Bilirubin Change from Baseline, Mean (Week 12, n=34): -1.54 µmol/L
Bilirubin Change from Baseline, Median (Week 12, n=34): -0.05 µmol/L
Bilirubin Observed Value, Mean (Week 12, n=34): 10.57 µmol/L
Bilirubin Observed Value, Median (Week 12, n=34): 8.35 µmol/L
Gamma Glutamyl Transferase Change from Baseline, Mean (Week 12, n=34): −8.1 U/L
Gamma Glutamyl Transferase Change from Baseline, Median (Week 12, n=34): −4 U/L
Gamma Glutamyl Transferase Observed Value, Mean (Week 12, n=34): 67.9 U/L
Gamma Glutamyl Transferase Observed Value, Median (Week 12, n=34): 51 U/L
ALT >10% decrease from Baseline, % of subjects (Week 16, m=38): (52.6%)
ALT >10% decrease from Baseline, n subjects (Week 16, m=38): 20
ALT >10% increase from Baseline, % of subjects (Week 16, m=38): (21.1%)
ALT >10% increase from Baseline, n subjects (Week 16, m=38): 8
ALT Within 10% of Baseline, % of subjects (Week 16, m=38): (26.3%)
ALT Within 10% of Baseline, n subjects (Week 16, m=38): 10
AST >10% decrease from Baseline, % of subjects (Week 16, m=38): (50.0%)
AST >10% decrease from Baseline, n subjects (Week 16, m=38): 19
AST >10% increase from Baseline, % of subjects (Week 16, m=38): (18.4%)
AST >10% increase from Baseline, n subjects (Week 16, m=38): 7
AST Within 10% of Baseline, % of subjects (Week 16, m=38): (31.6%)
AST Within 10% of Baseline, n subjects (Week 16, m=38): 12
Albumin >10% decrease from Baseline, % of subjects (Week 16, m=38): (5.3%)
Albumin >10% decrease from Baseline, n subjects (Week 16, m=38): 2
Albumin >10% increase from Baseline, n subjects (Week 16, m=38): 0
Albumin Within 10% of Baseline, % of subjects (Week 16, m=38): (94.7%)
Albumin Within 10% of Baseline, n subjects (Week 16, m=38): 36
Alkaline Phosphatase >10% decrease from Baseline, % of subjects (Week 16, m=38): (60.5%)
Alkaline Phosphatase >10% decrease from Baseline, n subjects (Week 16, m=38): 23
Alkaline Phosphatase >10% increase from Baseline, % of subjects (Week 16, m=38): (21.1%)
Alkaline Phosphatase >10% increase from Baseline, n subjects (Week 16, m=38): 8
Alkaline Phosphatase Within 10% of Baseline, % of subjects (Week 16, m=38): (18.4%)
Alkaline Phosphatase Within 10% of Baseline, n subjects (Week 16, m=38): 7
Bilirubin >10% decrease from Baseline, % of subjects (Week 16, m=38): (63.2%)
Bilirubin >10% decrease from Baseline, n subjects (Week 16, m=38): 24
Bilirubin >10% increase from Baseline, % of subjects (Week 16, m=38): (23.7%)
Bilirubin >10% increase from Baseline, n subjects (Week 16, m=38): 9
Bilirubin Within 10% of Baseline, % of subjects (Week 16, m=38): (13.2%)
Bilirubin Within 10% of Baseline, n subjects (Week 16, m=38): 5
ALKALINE PHOSPHATASE Change from Baseline, Median (Week 16, n=38): −22.5 U/L
ALT Change from Baseline, Mean (Week 16, n=38): −8.0 U/L
ALT Change from Baseline, Median (Week 16, n=38): −3 U/L
ALT Observed Value, Mean (Week 16, n=38): 37.5 U/L
ALT Observed Value, Median (Week 16, n=38): 26.5 U/L
AST Change from Baseline, Mean (Week 16, n=38): −3.3 U/L
AST Change from Baseline, Median (Week 16, n=38): −3 U/L
AST Observed Value, Mean (Week 16, n=38): 29.8 U/L
AST Observed Value, Median (Week 16, n=38): 26 U/L
Albumin Change from Baseline, Mean (Week 16, n=38): -0.7 g/L
Albumin Change from Baseline, Median (Week 16, n=38): -0.5 g/L
Albumin Observed Value, Mean (Week 16, n=38): 41.7 g/L
Albumin Observed Value, Median (Week 16, n=38): 42 g/L
Alkaline Phosphatase Change from Baseline, Mean (Week 16, n=38): −24.5 U/L
Alkaline Phosphatase Observed Value, Mean (Week 16, n=38): 114.2 U/L
Alkaline Phosphatase Observed Value, Median (Week 16, n=38): 102 U/L
Bilirubin Change from Baseline, Mean (Week 16, n=38): -3.41 µmol/L
Bilirubin Change from Baseline, Median (Week 16, n=38): -1.75 µmol/L
Bilirubin Observed Value, Mean (Week 16, n=38): 9.40 µmol/L
Bilirubin Observed Value, Median (Week 16, n=38): 8.1 µmol/L
Gamma Glutamyl Transferase Change from Baseline, Mean (Week 16, n=38): −7.0 U/L
Gamma Glutamyl Transferase Change from Baseline, Median (Week 16, n=38): −5.5 U/L
